Tested on: PBMCs from HCMV seropositive subjects
Experiment: ex vivo IFN-γ Fluorospot assay
Type: cell-based, human
Details: 19 HCMV seropositive subjects, individual peptide 10 ug/ml, 20 hr; for No. of subjects responding: IFN-γ; for Magnitude of response: IFN-γ spots (FIG. 1: SFC/10^6 PBMC; no unit in table)
Procedure: To define the targets of HCMV-specific T cell epitopes recognized in healthy adults, the inventors screened PBMCs of 19 subjects, 10 males and 9 females, recruited from San Diego blood bank (SDBB). The HCMV seropositivity of all the subjects was confirmed by IgG ELISA (FIG. 6A). A total of 2593 HCMV peptides covering a total of 563 ORFs (1) were tested. However, as many of these predicted ORFs overlapped 100% with others, as they were internal to longer ORFs, these 563 contained 359 completely unique ORFs composed of ˜150“canonical” ORFs, and an additional ˜200 identified by ribosomal RNA profiling (1). These peptides corresponded to predicted dominant epitopes, based on a bioinformatic method that predicts promiscuous binding to HLA class II molecules (40). Each of the ORFs above was covered by multiple predicted epitopes (with a minimum of at least 2), with the exception of very small ORFs (less than 15-20 amino acid residues), in which case at least one peptide was synthetized. The 2593 peptides were arranged in 89 pools of 28-30 15-mer peptides. PBMC reactivity of each of the 89 pools was assayed directly ex vivo using an IFN-γ Fluorospot assay.
For the initial CMV ORF screen, the responses of 19 CMV-seropositive subjects were evaluated. PBMCs were stimulated with 89 pools covering 563 ORFs of HCMV. Each pool comprised of 28-30 15-mer peptides overlapping by 10 residues. PBMCs that were found reactive to a pool were further tested against individual peptides contained in the pool using IFN-γ Fluorospot assay.
PBMC were thawed, washed and counted for viability using the trypan blue exclusion method. 200,000 cells were plated in triplicates and stimulated with pools (2 ug/ml) or peptides (10 ug/ml), PHA (10 ug/ml) or medium containing equivalent amount of DMSO in 96-well plates (Immubilion-P, Millipore) previously coated with anti IFN-γ antibody (1-DIK, Mabtech, Stockholm, Sweden). After 20 hr incubation at 37° C., cells were discarded and wells were washed six times with PBS/0.05% Tween 20 using an automated plate washer and further incubated with IFN-γ antibody (7-B6-1-FS-BAM) for 2 hrs at room temperature. After incubation, wells were washed and incubated with fluorophore conjugated anti-BAM-490 antibody for 1 hr at room temperature. Finally, the plates were washed and incubated with fluorescence enhancer for 15 min, blotted dry and fluorescent spots were counted by computer assisted image analysis (IRIS Fluorospot reader, Mabtech, Sweden).
Each pool or peptide was considered positive compared to the background that had equivalent amount of DMSO based on the following criteria: (i) 20 or more spot forming cells (SFC) per 10^6 PBMC after background subtraction, (ii) the stimulation index greater than 2, and (iii) p<0.05 by student's t test or Poisson distribution test

Substance	No. of subjects responding	Magnitude of response
157 (HLGWQTLSNHVIRRL) [compound 157]	1	127
159 (SCTHPYVISLVTPLT) [compound 159]	1	80
160 (ISLVTPLTINATLRL) [compound 160]	1	317
161 (CRVDADLGLLYAVCL) [compound 161]	1	673
162 (VCLILSFSIVTAALW) [compound 162]	1	43
163 (MFFLAIRDHDTAGGI) [compound 163]	1	1637
164 (LQTMLRKEVNSQLSL) [compound 164]	2	1606
165 (LVKQIKVRVDMVRHR) [compound 165]	3	580
166 (RVDMVRHRIKEHMLK) [compound 166]	2	250
167 (LRRKMMYMCYRNIEF) [compound 167]	6	1697
168 (CSPDEIMSYAQKIFK) [compound 168]	2	194
169 (EERDKVLTHIDHIFM) [compound 169]	2	107
170 (VLCCYVLEETSVMLA) [compound 170]	1	93
171 (ITKPEVISVMKRRIE) [compound 171]	1	1600
172 (FAQYILGADPLRVCS) [compound 172]	1	30
173 (EAIVAYTLATAGASS) [compound 173]	3	19333
177 (STPFLMEHTMPVTHP) [compound 177]	4	740
178 (YRNMIIHAATPVDLL) [compound 178]	2	130
179 (VMVRIFSTNQGGFML) [compound 179]	2	3560
180 (VVVGIVLCLSLASTV) [compound 180]	1	1417
181 (SPVAAELPHPSPAPM) [compound 181]	2	166
182 (SYLAVHLRISHRYYH) [compound 182]	1	290
183 (IAITMVMRFWQYING) [compound 183]	3	163

Substance	No. of subjects responding	Magnitude of response
187 (LHRRAAVSGRRSLLQ) [compound 187]	1	87
188 (MLRLLFTLVLLALYG) [compound 188]	3	4593
189 (HVRLLSYRGDPLVFK) [compound 189]	3	333
190 (VVRFALYLETLSRIV) [compound 190]	2	123
191 (FYMNWTLRRSQTHYL) [compound 191]	6	16883
192 (QVEILKPRGVRHRAI) [compound 192]	9	3468
193 (FCVYRYNARLTRGYV) [compound 193]	3	700
194 (TRGYVRYTLSPKARL) [compound 194]	7	9337
195 (SLDRFIVQYLNTLLI) [compound 195]	8	23368
196 (PTWSTTVNAHNSFLH) [compound 196]	1	47
197 (DRLSTLAATMCMFDY) [compound 197]	1	53
198 (LFYRAVALGTLSALV) [compound 198]	3	2633
199 (SSIFTSTHRGVIVAP) [compound 199]	1	27
200 (LSVRYLSLTAYMLLA) [compound 200]	1	1200
201 (TAYKAFLWKYAKKLN) [compound 201]	1	503
202 (WKYAKKLNYHYFRLR) [compound 202]	1	237
203 (VYLWYVRRQLVAFCL) [compound 203]	3	253
204 (FPSARDIPKQLPEQP) [compound 204]	1	27
205 (VVAYVILERLWLAAR) [compound 205]	1	23
206 (IRRWWISVAIVIFIG) [compound 206]	3	10480
207 (RWQFAVCAASKTATR) [compound 207]	1	50
208 (PQRLLLTALAIWQRT) [compound 208]	1	983
209 (PWWRRLRVKRPKFPS) [compound 209]	1	240

Substance	No. of subjects responding	Magnitude of response
210 (LWYLGDYGAILKIYF) [compound 210]	1	40
211 (LFCGACVITRSLLLI) [compound 211]	1	487
212 (MNLVMLILALWAPVA) [compound 212]	1	553
214 (MLVVTVFDTTRLFEI) [compound 214]	1	840
215 (VCAFCWLVLPHRLEQ) [compound 215]	1	1960
216 (VSVLYFMPSEPGSAH) [compound 216]	1	177
217 (VFQKTLSMLQGLYLR) [compound 217]	2	327
218 (GLYLRQYDPPALRTY) [compound 218]	2	633
219 (WFLVMREQAAIPQIY) [compound 219]	4	1100
220 (QIYARSLAADYLCCD) [compound 220]	1	33
221 (DFRDLLNFIRQRLCC) [compound 221]	1	30
222 (PSQEILLLCARHLDE) [compound 222]	3	110
223 (TDCWPFEVAPAARLA) [compound 223]	2	1637
224 (LFRAGLMKVYVRRRY) [compound 224]	1	870
225 (VVFMGRFSRVYAYDT) [compound 225]	1	70
226 (EKYMVLVSHNLDELA) [compound 226]	1	20
227 (PRLHCLVTTRSSTRE) [compound 227]	1	1277
228 (LRYKWLIRKDRFIVR) [compound 228]	1	3247
229 (TNIMLQVSNVTNHTL) [compound 229]	1	58
230 (IVVGLPFFLEYAKHH) [compound 230]	2	1250
231 (YNRMVRFIINYVGKW) [compound 231]	1	23

— patent US20250332249A1, “CYTOM[…] CELL EPITOPES AND USES THEREOF” (LA JOLLA INSTITUTE FOR IMMUNOLOGY, priority 2021, published 2025)
